From article PMC5218480 (PLoS ONE, 2017) come the findings set out here.

This test deals with MV-4-11 cells. The experiment in a line: Gene expression microarray analysis (Affymetrix PrimeView) and GSEA. The format is cell-based, human. The conditions noted are these: MV-4-11 cells, 48 hours. Set-up: RFU PODN (11730768_x_at) / Fold change /veh PODN (11730768_x_at) / RFU LINC00158 (11744669_a_at) / Fold change /veh LINC00158 (11744669_a_at) / RFU DUSP10 (11751237_a_at) / Fold change /veh DUSP10 (11751237_a_at) / RFU ID3 (11757404_x_at) / Fold change /veh ID3 (11757404_x_at) / RFU PLEKHG5 (11737974_s_at) / Fold change /veh PLEKHG5 (11737974_s_at) / RFU LRRC4B (11730491_at) / Fold change /veh LRRC4B (11730491_at) / RFU GIMAP4 (11747438_a_at) / Fold change /veh GIMAP4 (11747438_a_at) / RFU KRT8 (11758183_x_at) / Fold change /veh KRT8 (11758183_x_at) / RFU CNN1 (11734310_a_at) / Fold change /veh CNN1 (11734310_a_at) / RFU VPS37D (11726825_at) / Fold change /veh VPS37D (11726825_at) / RFU C10orf10 (11716522_x_at) / Fold change /veh C10orf10 (11716522_x_at) / RFU KIR2DL2 /// KIR2DL4 /// KIR2DL5A /// KIR2DL5B /// KIR2DS1 /// KIR2DS2 /// KIR2DS3 /// KIR2DS4 /// KIR3DL3 /// KIR3DL3 /// KIR3DS1 (11738374_at) / Fold change /veh KIR2DL2 /// KIR2DL4 /// KIR2DL5A /// KIR2DL5B /// KIR2DS1 /// KIR2DS2 /// KIR2DS3 /// KIR2DS4 /// KIR3DL3 /// KIR3DL3 /// KIR3DS1 (11738374_at) / RFU C1QL1 (11718748_at) / Fold change /veh C1QL1 (11718748_at) / RFU TMPRSS4 (11747572_a_at) / Fold change /veh TMPRSS4 (11747572_a_at) / RFU HAMP (11756126_x_at) / Fold change /veh HAMP (11756126_x_at) / RFU RNFT2 (11725882_a_at) / Fold change /veh RNFT2 (11725882_a_at) / RFU NR4A2 (11747474_a_at) / Fold change /veh NR4A2 (11747474_a_at) / RFU ABCC12 (11746883_a_at) / Fold change /veh ABCC12 (11746883_a_at) / RFU TMEM136 (11760407_x_at) / Fold change /veh TMEM136 (11760407_x_at) / RFU CLDN22 /// WWC2 (11732394_at) / Fold change /veh CLDN22 /// WWC2 (11732394_at) / RFU HLA-DPB1 (11760878_x_at) / Fold change /veh HLA-DPB1 (11760878_x_at) / RFU SPINT1 (11716480_a_at) / Fold change /veh SPINT1 (11716480_a_at) / RFU GAP43 (11754022_s_at) / Fold change /veh GAP43 (11754022_s_at) / RFU A4GNT (11735810_at) / Fold change /veh A4GNT (11735810_at) / RFU PRB3 (11715151_x_at) / Fold change /veh PRB3 (11715151_x_at) / RFU TUBB4B (11761932_at) / Fold change /veh TUBB4B (11761932_at) / RFU CAPN14 (11732068_a_at) / Fold change /veh CAPN14 (11732068_a_at) / RFU TMCC2 (11721928_a_at) / Fold change /veh TMCC2 (11721928_a_at) / RFU IRGQ (11745062_a_at) / Fold change /veh IRGQ (11745062_a_at) / RFU FAM174B (11720279_a_at) / Fold change /veh FAM174B (11720279_a_at) / RFU TMPRSS4 (11748680_a_at) / Fold change /veh TMPRSS4 (11748680_a_at) / RFU FAM212B (11763350_a_at) / Fold change /veh FAM212B (11763350_a_at) / RFU PLEKHG5 (11743358_a_at) / Fold change /veh PLEKHG5 (11743358_a_at) / RFU ZSCAN30 (11745921_a_at) / Fold change /veh ZSCAN30 (11745921_a_at) / RFU CMKLR1 (11741424_a_at) / Fold change /veh CMKLR1 (11741424_a_at) / RFU LOC101060620 /// MAPK8IP1 (11723275_at) / Fold change /veh LOC101060620 /// MAPK8IP1 (11723275_at) / RFU SPTSSB (11747773_x_at) / Fold change /veh SPTSSB (11747773_x_at) / RFU PRSS12 (11739890_at) / Fold change /veh PRSS12 (11739890_at) / RFU BIN1 (11741810_x_at) / Fold change /veh BIN1 (11741810_x_at) / RFU WNT11 (11732464_a_at) / Fold change /veh WNT11 (11732464_a_at) / RFU C10orf10 (11716521_a_at) / Fold change /veh C10orf10 (11716521_a_at) / RFU C5orf56 (11738089_at) / Fold change /veh C5orf56 (11738089_at) / RFU CYB561 (11721691_x_at) / Fold change /veh CYB561 (11721691_x_at) / RFU ANKRD19P (11752326_a_at) / Fold change /veh ANKRD19P (11752326_a_at) / RFU OR2T12 /// OR2T33 /// OR2T8 (11738714_s_at) / Fold change /veh OR2T12 /// OR2T33 /// OR2T8 (11738714_s_at) / RFU VCAN (11748164_a_at) / Fold change /veh VCAN (11748164_a_at) / RFU JSRP1 (11732532_at) / Fold change /veh JSRP1 (11732532_at) / RFU KRTAP10-11 (11738290_x_at) / Fold change /veh KRTAP10-11 (11738290_x_at) / RFU MYO3A (11730013_a_at) / Fold change /veh MYO3A (11730013_a_at) / RFU EBF3 (11725865_a_at) / Fold change /veh EBF3 (11725865_a_at) / RFU CAMK2N1 (11719241_x_at) / Fold change /veh CAMK2N1 (11719241_x_at) / RFU C5orf56 (11738088_a_at) / Fold change /veh C5orf56 (11738088_a_at) / RFU OLFML3 (11715873_a_at) / Fold change /veh OLFML3 (11715873_a_at) / RFU LOC100653217 /// NTM (11731650_a_at) / Fold change /veh LOC100653217 /// NTM (11731650_a_at) / RFU MAPK11 (11762145_a_at) / Fold change /veh MAPK11 (11762145_a_at) / RFU FIZ1 (11724087_x_at) / Fold change /veh FIZ1 (11724087_x_at) / RFU OASL (11726364_x_at) / Fold change /veh OASL (11726364_x_at) / RFU SOX15 (11748057_x_at) / Fold change /veh SOX15 (11748057_x_at) / RFU CD79A (11719716_a_at) / Fold change /veh CD79A (11719716_a_at) / RFU HIST1H1D (11736915_at) / Fold change /veh HIST1H1D (11736915_at) / RFU CASKIN2 (11723855_a_at) / Fold change /veh CASKIN2 (11723855_a_at) / RFU LOC730098 (11760151_x_at) / Fold change /veh LOC730098 (11760151_x_at) / RFU OR4N2 (11742367_at) / Fold change /veh OR4N2 (11742367_at) / RFU PRRT2 (11749266_a_at) / Fold change /veh PRRT2 (11749266_a_at) / RFU SNX32 (11753110_a_at) / Fold change /veh SNX32 (11753110_a_at) / RFU CDHR5 (11726645_a_at) / Fold change /veh CDHR5 (11726645_a_at) / RFU RCAN1 (11760418_a_at) / Fold change /veh RCAN1 (11760418_a_at) / RFU FAM167A (11723789_a_at) / Fold change /veh FAM167A (11723789_a_at) / RFU FAM26E (11764081_at) / Fold change /veh FAM26E (11764081_at) / RFU ISYNA1 (11749810_s_at) / Fold change /veh ISYNA1 (11749810_s_at) / RFU ACY1 (11761880_at) / Fold change /veh ACY1 (11761880_at) / RFU 11764098_at / Fold change /veh 11764098_at / RFU SAMD14 (11745864_x_at) / Fold change /veh SAMD14 (11745864_x_at) / RFU NPB (11741838_a_at) / Fold change /veh NPB (11741838_a_at) / RFU TMPRSS6 (11731388_a_at) / Fold change /veh TMPRSS6 (11731388_a_at) / RFU KRTAP10-2 (11738614_at) / Fold change /veh KRTAP10-2 (11738614_at) / RFU ARHGAP8 /// PRR5-ARHGAP8 (11727945_x_at) / Fold change /veh ARHGAP8 /// PRR5-ARHGAP8 (11727945_x_at) / RFU KRTAP5-7 /// NADSYN1 (11734609_at) / Fold change /veh KRTAP5-7 /// NADSYN1 (11734609_at) / RFU RASL12 (11751679_a_at) / Fold change /veh RASL12 (11751679_a_at) / RFU CDKN2B (11736163_a_at) / Fold change /veh CDKN2B (11736163_a_at) / RFU PRF1 (11729649_at) / Fold change /veh PRF1 (11729649_at) / RFU, ZNF638 /// ZNF638-IT1 / Fold change vs veh, ZNF638 /// ZNF638-IT1 / RFU, PANK3 / Fold change vs veh, PANK3 / RFU, SH3YL1 / Fold change vs veh, SH3YL1 / RFU, ZEB2 / Fold change vs veh, ZEB2 / RFU, NRIP1 / Fold change vs veh, NRIP1 / RFU, PTTG1IP / Fold change vs veh, PTTG1IP / RFU, CAPN2 / Fold change vs veh, CAPN2 / RFU, MED14 / Fold change vs veh, MED14 / RFU, SNORA58 / Fold change vs veh, SNORA58 / RFU, C1orf63 / Fold change vs veh, C1orf63 / RFU, LRRFIP1 / Fold change vs veh, LRRFIP1 / RFU, NDUFAF7 / Fold change vs veh, NDUFAF7 / RFU, SLC12A2 / Fold change vs veh, SLC12A2 / RFU, IBTK / Fold change vs veh, IBTK / RFU, ESF1 / Fold change vs veh, ESF1 / Fold change vs veh, TMEM50B / RFU, TAOK1 / Fold change vs veh, TAOK1 / RFU, ACBD3 / Fold change vs veh, ACBD3 / RFU, TMA16 / Fold change vs veh, TMA16 / RFU, RWDD3 / Fold change vs veh, RWDD3 / RFU, BCAT1 / Fold change vs veh, BCAT1 / RFU, EDEM3 / Fold change vs veh, EDEM3 / RFU, TMEM33 / Fold change vs veh, TMEM33 / RFU, WDR75 / Fold change vs veh, WDR75 / RFU, AHCTF1 / Fold change vs veh, AHCTF1 / RFU, TFRC / Fold change vs veh, TFRC / RFU, ZDHHC17 / Fold change vs veh, ZDHHC17 / RFU, NOM1 / Fold change vs veh, NOM1 / RFU, ARL8B / Fold change vs veh, ARL8B / RFU, ZBTB11 / Fold change vs veh, ZBTB11 / RFU, TAMM41 / Fold change vs veh, TAMM41 / RFU, KIAA1704 /// LOC100996395 / Fold change vs veh, KIAA1704 /// LOC100996395 / RFU, ING1 / Fold change vs veh, ING1 / RFU, TRMT61B / Fold change vs veh, TRMT61B / RFU, FUBP3 / Fold change vs veh, FUBP3 / RFU, TP53 / Fold change vs veh, TP53 / RFU, TNKS2 / Fold change vs veh, TNKS2 / RFU, ZFP14 / Fold change vs veh, ZFP14 / RFU, ACTR2 / Fold change vs veh, ACTR2 / RFU, PPP3R1 / Fold change vs veh, PPP3R1 / RFU, PIK3R1 / Fold change vs veh, PIK3R1 / RFU, HNRNPA1 / Fold change vs veh, HNRNPA1 / RFU, RNF170 / Fold change vs veh, RNF170 / RFU, ZNF28 / Fold change vs veh, ZNF28 / RFU, RNGTT / Fold change vs veh, RNGTT / RFU, OGT / Fold change vs veh, OGT / RFU, BRD1 / Fold change vs veh, BRD1 / RFU, MARS / Fold change vs veh, MARS / RFU, ZNF655 / Fold change vs veh, ZNF655 / RFU, FAHD1 / Fold change vs veh, FAHD1 / RFU, BDP1 / Fold change vs veh, BDP1 / RFU, LRRCC1 / Fold change vs veh, LRRCC1 / RFU, ARID1A / Fold change vs veh, ARID1A / RFU, ZNF146 / Fold change vs veh, ZNF146 / RFU, ZNF330 / Fold change vs veh, ZNF330 / RFU, GPN3 / Fold change vs veh, GPN3 / RFU, C9orf123 / Fold change vs veh, C9orf123 / RFU, N4BP2L2 / Fold change vs veh, N4BP2L2 / RFU, ARFIP1 / Fold change vs veh, ARFIP1 / RFU, FAM179B / Fold change vs veh, FAM179B / RFU, BCL10 / Fold change vs veh, BCL10 / RFU, UHRF1BP1L / Fold change vs veh, UHRF1BP1L / RFU, BET1 / Fold change vs veh, BET1 / RFU, CNOT2 / Fold change vs veh, CNOT2 / RFU, ZNF268 / Fold change vs veh, ZNF268 / Fold change vs veh, ZNF507 / RFU, DGCR2 / Fold change vs veh, DGCR2 / RFU, WDSUB1 / Fold change vs veh, WDSUB1 / Fold change vs veh, HSP90B1 /// MIR3652 / RFU, ADSS / Fold change vs veh, ADSS / RFU, GK / Fold change vs veh, GK / RFU, ZNF148 / Fold change vs veh, ZNF148 / RFU, TAF9 / Fold change vs veh, TAF9 / RFU, SLC1A5 / Fold change vs veh, SLC1A5 / RFU, SLMO2 / Fold change vs veh, SLMO2 / RFU, ABCC4 / Fold change vs veh, ABCC4 / RFU, LOC101060439 /// RAP1B / Fold change vs veh, LOC101060439 /// RAP1B / RFU, RFX7 / Fold change vs veh, RFX7 / RFU, GTPBP10 / Fold change vs veh, GTPBP10 / RFU, CNEP1R1 / Fold change vs veh, CNEP1R1 / RFU, BIVM-ERCC5 /// ERCC5 / Fold change vs veh, BIVM-ERCC5 /// ERCC5 / RFU, ILF3 / Fold change vs veh, ILF3 / RFU 11762660_at / Fold change /veh 11762660_at / RFU VCAN (11757783_s_at) / Fold change /veh VCAN (11757783_s_at) / RFU DDX43 (11728927_at) / Fold change /veh DDX43 (11728927_at) / RFU KRT8 (11758188_x_at) / Fold change /veh KRT8 (11758188_x_at) / RFU NKD1 (11759106_at) / Fold change /veh NKD1 (11759106_at) / RFU SRD5A1 (11742802_a_at) / Fold change /veh SRD5A1 (11742802_a_at) / RFU TPSAB1 /// TPSB2 (11721975_s_at) / Fold change /veh TPSAB1 /// TPSB2 (11721975_s_at) / RFU GSTM3 (11746129_a_at) / Fold change /veh GSTM3 (11746129_a_at) / RFU IL23R (11737362_x_at) / Fold change /veh IL23R (11737362_x_at) / RFU TMEM51 (11727254_a_at) / Fold change /veh TMEM51 (11727254_a_at) / RFU PIWIL2 (11732686_x_at) / Fold change /veh PIWIL2 (11732686_x_at) / RFU ORM1 (11744905_x_at) / Fold change /veh ORM1 (11744905_x_at) / RFU CCDC152 (11743942_at) / Fold change /veh CCDC152 (11743942_at) / RFU ECM1 (11717891_a_at) / Fold change /veh ECM1 (11717891_a_at) / RFU IL23R (11748794_a_at) / Fold change /veh IL23R (11748794_a_at) / RFU TNFAIP8L3 (11732012_x_at) / Fold change /veh TNFAIP8L3 (11732012_x_at) / RFU MBOAT4 (11741988_at) / Fold change /veh MBOAT4 (11741988_at) / RFU 11764193_at / Fold change /veh 11764193_at / RFU TMEM53 (11763286_at) / Fold change /veh TMEM53 (11763286_at) / RFU MAGEB2 (11727129_at) / Fold change /veh MAGEB2 (11727129_at) / RFU TMEM200A (11744735_a_at) / Fold change /veh TMEM200A (11744735_a_at) / RFU CCDC152 (11751479_a_at) / Fold change /veh CCDC152 (11751479_a_at) / RFU FAM211A (11726209_a_at) / Fold change /veh FAM211A (11726209_a_at) / RFU RGS16 (11746705_a_at) / Fold change /veh RGS16 (11746705_a_at) / RFU VCAN (11755009_s_at) / Fold change /veh VCAN (11755009_s_at) / RFU RHOB (11743442_s_at) / Fold change /veh RHOB (11743442_s_at) / RFU RGS16 (11720943_a_at) / Fold change /veh RGS16 (11720943_a_at) / RFU RGS16 (11720944_at) / Fold change /veh RGS16 (11720944_at) / RFU, VPS4B / Fold change vs veh, VPS4B / RFU, CREB1 / Fold change vs veh, CREB1 / RFU, DNAJC13 / Fold change vs veh, DNAJC13 / RFU, GNAQ / Fold change vs veh, GNAQ / RFU, CDK5R1 / Fold change vs veh, CDK5R1 / RFU, ZRANB3 / Fold change vs veh, ZRANB3 / RFU, CUL4A / Fold change vs veh, CUL4A / RFU, CCNY / Fold change vs veh, CCNY / RFU, UFL1 / Fold change vs veh, UFL1 / RFU, COG3 / Fold change vs veh, COG3 / RFU, DIAPH2 / Fold change vs veh, DIAPH2 / RFU, SKA2 / Fold change vs veh, SKA2 / RFU, AFF3 / Fold change vs veh, AFF3 / RFU, LMF1 / Fold change vs veh, LMF1 / RFU, IPO11 / Fold change vs veh, IPO11 / RFU, DFFB / Fold change vs veh, DFFB / RFU, FOXP1 / Fold change vs veh, FOXP1 / RFU, CARD8 / Fold change vs veh, CARD8 / RFU, STRN3 / Fold change vs veh, STRN3 / RFU, ADK / Fold change vs veh, ADK / RFU, RASSF2 / Fold change vs veh, RASSF2 / RFU, WIPF1 / Fold change vs veh, WIPF1 / RFU, LARP1B / Fold change vs veh, LARP1B / RFU, RASA1 / Fold change vs veh, RASA1 / RFU, RB1 / Fold change vs veh, RB1 / RFU, PPFIA1 / Fold change vs veh, PPFIA1 / RFU, MAT2A / Fold change vs veh, MAT2A / RFU, CCT5 / Fold change vs veh, CCT5 / RFU, WDR92 / Fold change vs veh, WDR92 / RFU, CUX1 / Fold change vs veh, CUX1 / RFU, TTC7A / Fold change vs veh, TTC7A / RFU, TMEM135 / Fold change vs veh, TMEM135 / RFU, DEPTOR / Fold change vs veh, DEPTOR / RFU, CPM / Fold change vs veh, CPM / RFU, DNAJB6 / Fold change vs veh, DNAJB6 / RFU, CACNA2D3 / Fold change vs veh, CACNA2D3 / RFU, DTX4 / Fold change vs veh, DTX4 / RFU, TFCP2 / Fold change vs veh, TFCP2 / RFU, GMCL1 /// GMCL1P1 / Fold change vs veh, GMCL1 /// GMCL1P1 / RFU, AEBP2 / Fold change vs veh, AEBP2 / RFU, SNHG1 /// SNORD22 /// SNORD25 /// SNORD26 /// SNORD27 /// SNORD28 /// SNORD29 /// SNORD31 / Fold change vs veh, SNHG1 /// SNORD22 /// SNORD25 /// SNORD26 /// SNORD27 /// SNORD28 /// SNORD29 /// SNORD31 / Fold change (Aza/veh), C12orf56 (ProbeSet 11735607_a_at) / Fold change (ACY-1035/veh), C12orf56 (ProbeSet 11735607_a_at) / Fold change (Aza/veh), FGFR1OP (ProbeSet 11751329_s_at) / Fold change (ACY-1035/veh), FGFR1OP (ProbeSet 11751329_s_at) / Fold change (Aza/veh), VPS36 (ProbeSet 11739960_a_at) / Fold change (ACY-1035/veh), VPS36 (ProbeSet 11739960_a_at) / RFU SYPL1 (11715823_x_at) / Fold change /veh SYPL1 (11715823_x_at) / RFU IGFBP7 (11715501_s_at) / Fold change /veh IGFBP7 (11715501_s_at) / RFU REEP3 (11722064_at) / Fold change /veh REEP3 (11722064_at) / RFU IGLL1 (11728026_x_at) / Fold change /veh IGLL1 (11728026_x_at): dose or concentration left out as unconfirmed.

`Nc1ccc(-c2cccs2)cc1NC(=O)c1ccc2c(c1)cc(C1CC1)n2CCN1CCOCC1` [ACY-1035]: the “Fold change /veh TMEM51 (11727254_a_at)” value amounted to 0.98.
